Measured values: patent US11702422B2, “Imidazopyridazines as modulators of IL-17” (Janssen Pharmaceutica NV, priority 2020, dated 2023)

Columns and labels:
[1] = biological target: IL-17A(FLAG-Tagged): IL-17RA(His-Tagged) (Homo sapiens, UniProt Q16552, K93Q); assay: IL-17A(FLAG-Tagged): IL-17RA(His-Tagged) Binding Disruption Eu-HTRF Assay; conditions: IL-17A/IL-17RA binding disruption, simple average if tested more than once
Method in brief: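 IC50 comes from a one-site competition fit of the HTRF 665/620 nm ratio. Compound dilutions (2-fold, 22 points) were held 1 h rt with FLAG-tagged IL-17A dimer, then His-tagged IL-17RA plus Eu-cryptate anti-FLAG and D2 anti-His antibodies were added for 2 h rt.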

[2] = system: IL-17A-induced G-CSF production in human normal keratinocyte (NHK); assay: NHK Assay: IL-17A-induced G-CSF production in human normal keratinocytes; format: cell-based; conditions: 24 h, adult normal human keratinocytes, IL-17A 5 ng/mL, simple average if tested more than once
Method in brief: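 Adult NHK, 3000-4000 cells/well; rhIL-17A + titrated cpd preincubated 1 h rt, then onto cells. Final: IL-17A 5 ng/mL, DMSO 0.2%, 5% FBS. 24 h, 37° C. G-CSF in supernatant by HTRF vs standard curve; IC50. Viability by CellTiter-Glo vs DMSO.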

Chain of UniProt Q16552 (Q16552 with tags, fused parts or gaps K93Q): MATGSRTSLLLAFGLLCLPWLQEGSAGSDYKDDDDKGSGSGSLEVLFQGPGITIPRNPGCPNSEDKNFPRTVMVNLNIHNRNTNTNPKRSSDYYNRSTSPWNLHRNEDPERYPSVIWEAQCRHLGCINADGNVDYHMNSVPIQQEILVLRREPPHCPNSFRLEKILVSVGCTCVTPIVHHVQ

| SMILES | IC50 [1] | IC50 ([2]; Homo sapiens, Keratinocyte) | IC50 [2] |
| --- | --- | --- | --- |
| O=C(CCC(F)(F)F)N[C@@H](c1cnn2cc([C@@H](NC(=O)[C@H]3C(F)(F)C34CCC4)C3CCC(F)(F)CC3)nc2c1)C1CC1 (relative stereo) [Example 368, (S*)—N—((S)-(7-((R*)-Cyclopropyl(4,4,4-trifluorobutanamido)methyl)imidazo[1,2-b]pyridazin-2-yl)(4,4-difluorocyclohexyl)methyl)-2,2-difluorospiro[2.3]hexane-1-carboxamide] | 1600 nM | 9800 nM |  |
| CC(C)n1nccc1C(=O)N[C@H](c1cn2ncc([C@H](NC(=O)C[C@H]3C[C@H](F)C3)C3CC3)cc2n1)C1CCC(F)(F)CC1 (single isomer, unassigned) [Example 258] | 130 nM | 46 nM |  |
| O=C(CCC(F)(F)F)N[C@@H](c1cnn2cc([C@@H](NC(=O)c3nonc3OCC(F)(F)F)C3CCC(F)(F)CC3)nc2c1)C1CC1 [Example 382, N—((S)-(7-((R)-Cyclopropyl(4,4,4-trifluorobutanamido)methyl)imidazo[1,2-b]pyridazin-2-yl)(4,4-difluorocyclohexyl)methyl)-4-(2,2,2-trifluoroethoxy)-1,2,5-oxadiazole-3-carboxamide] | 51 nM | 11 nM |  |
| O=C(N[C@H](c1cn2ncc([C@H](NC(=O)C(F)(F)CC3CC3)C3CC3)cc2n1)C1CCC(F)(F)CC1)c1nonc1C1CC1 [Example 411, 4-Cyclopropyl-N—((S)-(7-((R)-cyclopropyl(3-cyclopropyl-2,2-difluoropropanamido)methyl)imidazo[1,2-b]pyridazin-2-yl)(4,4-difluorocyclohexyl)methyl)-1,2,5-oxadiazole-3-carboxamide] | 78 nM | 49 nM |  |
| CC(C)n1nccc1C(=O)N[C@H](c1cn2ncc(C(NC(=O)CC3CC(F)(F)C3)C(C)(C)O)cc2n1)C1CCC(F)(F)CC1 (single isomer, unassigned) [Example 444, N—((S)-(7-((R*)-1-(2-(3,3-Difluorocyclobutyl)acetamido)-2-hydroxy-2-methylpropyl)imidazo[1,2-b]pyridazin-2-yl)(4,4-difluorocyclohexyl)methyl)-1-isopropyl-1H-pyrazole-5-carboxamide] | 2300 nM |  | 11000 nM |
| O=C(CCC(F)(F)F)N[C@@H](c1cnn2cc([C@@H](NC(=O)c3cccc(OCC(F)F)c3)C3CCC(F)(F)CC3)nc2c1)C1CC1 [Example 168, N—((S)-(7-((R)-Cyclopropyl(4,4,4-trifluorobutanamido)methyl)imidazo[1,2-b]pyridazin-2-yl)(4,4-difluorocyclohexyl)methyl)-3-(2,2-difluoroethoxy)benzamide] | 38 nM | 190 nM |  |
| [2H]C([2H])([2H])n1nccc1C(=O)N[C@H](c1cn2ncc([C@H](NC(=O)CC3CC(F)(F)C3)C3CC3)cc2n1)C1CCC(F)(F)CC1 [Example 489, N—((S)-(7-((R)-Cyclopropyl(2-(3,3-difluorocyclobutyl)acetamido)methyl)imidazo[1,2-b]pyridazin-2-yl)(4,4-difluorocyclohexyl)methyl)-1-(methyl-d3)-1H-pyrazole-5-carboxamide] | 54 nM | 140 nM |  |
| N#CC1(C(NC(=O)CC2CC(F)(F)C2)c2cnn3cc([C@@H](NC(=O)c4nonc4OCC(F)F)C4CCC(F)(F)CC4)nc3c2)CC1 (single isomer, unassigned) [Example 430, N—((S)-(7-((R*)-(1-Cyanocyclopropyl)(2-(3,3-difluorocyclobutyl)acetamido)methyl)imidazo[1,2-b]pyridazin-2-yl)(4,4-difluorocyclohexyl)methyl)-4-(2,2-difluoroethoxy)-1,2,5-oxadiazole-3-carboxamide] | 1600 nM |  | 12000 nM |
| O=C(CCC(F)(F)F)N[C@@H](c1cnn2cc([C@@H](NC(=O)c3ccccc3CC(F)(F)F)C3CCC(F)(F)CC3)nc2c1)C1CC1 [Example 231, N—((S)-(7-((R)-Cyclopropyl(4,4,4-trifluorobutanamido)methyl)imidazo[1,2-b]pyridazin-2-yl)(4,4-difluorocyclohexyl)methyl)-2-(2,2,2-trifluoroethyl)benzamide] | 320 nM | > 20000 nM |  |
| CCn1ncc(C(=O)N[C@H](c2cn3ncc([C@H](NC(=O)CCC(F)(F)F)C4CC4)cc3n2)C2CCC(F)(F)CC2)n1 [Example 59, N—((S)-(7-((R)-Cyclopropyl(4,4,4-trifluorobutanamido)methyl)imidazo[1,2-b]pyridazin-2-yl)(4,4-difluorocyclohexyl)methyl)-2-ethyl-2H-1,2,3-triazole-4-carboxamide] | 420 nM | 3600 nM |  |

Further compounds by falling IC50 [1], results first:

| IC50 [1] | SMILES | IC50 ([2]; Homo sapiens, Keratinocyte) | IC50 [2] |
| --- | --- | --- | --- |
| 1000 nM | Cc1nonc1C(=O)N[C@H](c1cn2ncc(C(NC(=O)CC3CC(F)(F)C3)C3CCC3)cc2n1)C1CCC(F)(F)CC1 (single isomer, unassigned) [Example 494, N—((S)-(7-((S*)-Cyclobutyl(2-(3,3-difluorocyclobutyl)acetamido)methyl)imidazo[1,2-b]pyridazin-2-yl)(4,4-difluorocyclohexyl)methyl)-4-methyl-1,2,5-oxadiazole-3-carboxamide] |  | > 20000 nM |
| 310 nM | O=C(CCC(F)F)N[C@@H](c1cnn2cc([C@@H](NC(=O)c3conc3OCC(F)F)C3CCC(F)(F)CC3)nc2c1)C1CC1 [Example 286, N—((S)-(7-((R)-Cyclopropyl(4,4-difluorobutanamido)methyl)imidazo[1,2-b]pyridazin-2-yl)(4,4-difluorocyclohexyl)methyl)-3-(2,2-difluoroethoxy)isoxazole-4-carboxamide] | 7500 nM |  |
| 190 nM | CCOc1nocc1C(=O)N[C@H](c1cn2ncc([C@H](NC(=O)CCC(F)(F)F)C3CC3)cc2n1)C1CCC(F)(F)CC1 [Example 238, N—((S)-(7-((R)-Cyclopropyl(4,4,4-trifluorobutanamido)methyl)imidazo[1,2-b]pyridazin-2-yl)(4,4-difluorocyclohexyl)methyl)-3-ethoxyisoxazole-4-carboxamide] | 830 nM |  |
| 120 nM | CC(C)n1nccc1C(=O)N[C@H](c1cn2ncc(C(NC(=O)CCC(F)(F)F)C3CC3)cc2n1)C1CCC(F)(F)CC1 (single isomer, unassigned) [Example 14, N—((S)-(7-((R*)-Cyclopropyl(4,4,4-trifluorobutanamido)methyl)imidazo[1,2-b]pyridazin-2-yl)(4,4-difluorocyclohexyl)methyl)-1-isopropyl-1H-pyrazole-5-carboxamide] |  | 50 nM |
| 100 nM | Cc1nonc1C(=O)N[C@H](c1cn2ncc(C(NC(=O)CC3(C(F)(F)F)CC3)C3(C#N)CC3)cc2n1)C1CCC(F)(F)CC1 (single isomer, unassigned) [Example 427, N—((S)-(7-((S*)-(1-Cyanocyclopropyl)(2-(1-(trifluoromethyl)cyclopropyl)acetamido)methyl)imidazo[1,2-b]pyridazin-2-yl)(4,4-difluorocyclohexyl)methyl)-4-methyl-1,2,5-oxadiazole-3-carboxamide] |  | 370 nM |
| 94 nM | O=C(CC1CC(F)(F)C1)N[C@@H](c1cnn2cc([C@@H](NC(=O)c3nonc3C3(O)CCCC3)C3CCC(F)(F)CC3)nc2c1)C1CC1 [Example 393, N—((S)-(7-((R)-Cyclopropyl(2-(3,3-difluorocyclobutyl)acetamido)methyl)imidazo[1,2-b]pyridazin-2-yl)(4,4-difluorocyclohexyl)methyl)-4-(1-hydroxycyclopentyl)-1,2,5-oxadiazole-3-carboxamide] | 120 nM |  |
| 62 nM | O=C(CCC(F)(F)F)N[C@@H](c1cnn2cc([C@@H](NC(=O)c3cncc(C4CCC4)c3)C3CCC(F)(F)CC3)nc2c1)C1CC1 [Example 416, 5-Cyclobutyl-N—((S)-(7-((R)-cyclopropyl(4,4,4-trifluorobutanamido)methyl)imidazo[1,2-b]pyridazin-2-yl)(4,4-difluorocyclohexyl)methyl)nicotinamide] | 550 nM |  |
| 58 nM | Cc1nsnc1C(=O)N[C@H](c1cn2ncc(C(NC(=O)CCC(F)(F)F)C3CC3)cc2n1)C1CCC(F)(F)CC1 (single isomer, unassigned) [Example 467, N—((S)-(7-((R*)-Cyclopropyl(4,4,4-trifluorobutanamido)methyl)imidazo[1,2-b]pyridazin-2-yl)(4,4-difluorocyclohexyl)methyl)-4-methyl-1,2,5-thiadiazole-3-carboxamide] | 360 nM |  |
| 41 nM | O=C(CCC(F)(F)F)N[C@@H](c1cnn2cc([C@@H](NC(=O)c3cccc(C(F)F)c3)C3CCC(F)(F)CC3)nc2c1)C1CC1 [Example 170, N—((S)-(7-((R)-Cyclopropyl(4,4,4-trifluorobutanamido)methyl)imidazo[1,2-b]pyridazin-2-yl)(4,4-difluorocyclohexyl)methyl)-3-(difluoromethyl)benzamide] | 220 nM |  |
| 14 nM | CC(C)(OC[C@H](NC(=O)c1nonc1C1CC1)c1cn2ncc([C@H](NC(=O)CC3CC(F)(F)C3)C3CCOCC3)cc2n1)C(F)(F)F [Example 540, 4-Cyclopropyl-N—((R)-1-(7-((R)-(2-(3,3-difluorocyclobutyl)acetamido)(tetrahydro-2H-pyran-4-yl)methyl)imidazo[1,2-b]pyridazin-2-yl)-2-((1,1,1-trifluoro-2-methylpropan-2-yl)oxy)ethyl)-1,2,5-oxadiazole-3-carboxamide] | 9.6 nM |  |
